Reference: patent US20260285853A1, “COMPOUNDS AND METHODS FOR MODULATING SPLICING” (REMIX THERAPEUTICS INC., priority 2023, published 2026)
Each block holds one compound with its values, some of them ahead of it.

Assays:
Assay type in all cases: cell-based
[1] = system: SH-SY5Y (human neuroblastoma) cells; assay: Cell viability, Cell Titer Glo 2.0 assay; details: read-out: Viability SHSY5Y.3 GI50
Summary of the method: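 Toxicity screen in SH-SY5Y cells. Compounds were serially diluted in DMSO and then in medium, giving 0.1% DMSO final. Viability was read with CellTiter-Glo 2.0 after 72 h at 37 °C, 5% CO2, against medium-only blank wells.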

SMN2 mRNA = assay: Gene panel canonical junction qPCR assay, decrease in CJ mRNA, Table 3; details: decrease in canonical junction (CJ) mRNA, gene panel qPCR, Table 3
Summary of the method: (§1)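 A673 (DMEM, 10% FBS, 15,000 cells/well) or K562 (IMDM, 10% FBS) cells treated 24 h at 37 °C with 11-point 3-fold dilutions, top 10 uM, DMSO ≤0.25%. Canonical exon-exon junction mRNA measured by RT-qPCR, normalized to GAPDH, GUSB or PPIA and DMSO (ΔΔCt); IC50 from 4-parameter logistic fit.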

MYB mRNA [2] = assay: as above; details: decrease in canonical junction (CJ) mRNA, gene panel qPCR, Table 3
Summary of the method: as §1

HTT mRNA [3] = assay: as above; details: decrease in canonical junction (CJ) mRNA, gene panel qPCR, Table 3
Summary of the method: as §1

HTT mRNA [4] = assay: Splicing RT-qPCR assay (THP), Table 2A; details: Table 2A (THP); for AC50: AJ mRNA increase, read-out: HTT AJ (increase in alternative junction mRNA, AC50); for IC50: CJ mRNA decrease, read-out: HTT CJ (decrease in canonical junction mRNA, IC50)
MYB mRNA [5] = assay: Splicing RT-qPCR assay (THP), Table 2A; details: Table 2A (THP); for AC50: AJ mRNA increase, read-out: MYB AJ (increase in alternative junction mRNA, AC50); for IC50: CJ mRNA decrease, read-out: MYB CJ (decrease in canonical junction mRNA, IC50)

GI50 [1]: 1000 to 10000 nM
IC50 (SMN2 mRNA): < 100 nM
IC50 (MYB mRNA [2]): 100 to 1000 nM
IC50 (HTT mRNA [3]): 100 to 1000 nM
IC50 (HTT mRNA [4]): 1000 to 10000 nM
IC50 (MYB mRNA [5]): 100 to 1000 nM
Structure (SMILES): CN[C@H]1C[C@@H](C)N(c2ccc(C(=O)Nc3cc(F)c4nc(C)cn4c3)c3nn(C)cc23)C1 (single isomer, unassigned) [Compound 128]
AC50 (HTT mRNA [4]): 1000 to 10000 nM
AC50 (MYB mRNA [5]): 100 to 1000 nM

GI50 [1]: > 10000 nM
IC50 (SMN2 mRNA): 100 to 1000 nM
IC50 (MYB mRNA [2]): 1000 to 10000 nM
IC50 (HTT mRNA [3]): > 10000 nM
IC50 (HTT mRNA [4]): > 10000 nM
IC50 (MYB mRNA [5]): 1000 to 10000 nM
Structure (SMILES): CN[C@H]1CCN(c2ccc(C(=O)Nc3cc(F)c4nc(C)cn4c3)c3nn(C)cc23)[C@H]1C (single isomer, unassigned) [Compound 152]
AC50 (HTT mRNA [4]): > 10000 nM
AC50 (MYB mRNA [5]): > 10000 nM

GI50 [1]: 100 to 1000 nM
IC50 (SMN2 mRNA): < 100 nM
IC50 (MYB mRNA [2]): < 100 nM
IC50 (HTT mRNA [3]): 100 to 1000 nM
IC50 (HTT mRNA [4]): 100 to 1000 nM
IC50 (MYB mRNA [5]): < 100 nM
Structure (SMILES): CN[C@@H]1CCN(c2ccc(C(=O)Nc3cc(F)c4nc(C)cn4c3)c3nn(C)cc23)[C@@H]1C (single isomer, unassigned) [Compound 153]
AC50 (HTT mRNA [4]): 100 to 1000 nM
AC50 (MYB mRNA [5]): < 100 nM

GI50 [1]: 100 to 1000 nM
IC50 (SMN2 mRNA): < 100 nM
IC50 (MYB mRNA [2]): 100 to 1000 nM
IC50 (HTT mRNA [3]): > 10000 nM
IC50 (HTT mRNA [4]): > 10000 nM
IC50 (MYB mRNA [5]): 1000 to 10000 nM
Structure (SMILES): CN[C@H]1CCN(c2ccc(C(=O)Nc3cc(F)c4nc(C)cn4c3)c3nn(C)cc23)[C@@H]1C (single isomer, unassigned) [Compound 154]
AC50 (HTT mRNA [4]): > 10000 nM
AC50 (MYB mRNA [5]): 100 to 1000 nM

GI50 [1]: 1000 to 10000 nM
IC50 (SMN2 mRNA): < 100 nM
IC50 (MYB mRNA [2]): 100 to 1000 nM
IC50 (HTT mRNA [3]): > 10000 nM
IC50 (HTT mRNA [4]): > 10000 nM
IC50 (MYB mRNA [5]): 100 to 1000 nM
Structure (SMILES): COCCN[C@@H]1CCN(c2ccc(C(=O)Nc3cc(F)c4nc(C)cn4c3)c3nn(C)cc23)C1 [Compound 113, N-(8-fluoro-2-methyl-imidazo[1,2-a]pyridin-6-yl)-4-[(3R)-3-(2-methoxyethylamino)pyrrolidin-1-yl]-2-methyl-indazole-7-carboxamide]
AC50 (HTT mRNA [4]): > 10000 nM
AC50 (MYB mRNA [5]): 100 to 1000 nM

GI50 [1]: 1000 to 10000 nM
IC50 (SMN2 mRNA): < 100 nM
IC50 (MYB mRNA [2]): 100 to 1000 nM
IC50 (HTT mRNA [3]): 1000 to 10000 nM
IC50 (HTT mRNA [4]): 1000 to 10000 nM
IC50 (MYB mRNA [5]): < 100 nM
Structure (SMILES): CN[C@@H]1C[C@@H](C)N(c2ccc(C(=O)Nc3cc(F)c4nc(C)cn4c3)c3nn(C)cc23)C1 [Compound 129, N-(8-fluoro-2-methyl-imidazo[1,2-a]pyridin-6-yl)-2-methyl-4-[(2R,4R)-2-methyl-4-(methylamino)pyrrol-idin-1-yl]indazole-7-carboxamide]
AC50 (HTT mRNA [4]): 1000 to 10000 nM
AC50 (MYB mRNA [5]): 100 to 1000 nM

GI50 [1]: 100 to 1000 nM
IC50 (SMN2 mRNA): 1000 to 10000 nM
IC50 (MYB mRNA [2]): 1000 to 10000 nM
IC50 (HTT mRNA [3]): > 10000 nM
IC50 (HTT mRNA [4]): > 10000 nM
IC50 (MYB mRNA [5]): > 10000 nM
Structure (SMILES): CN[C@@H]1CCN(c2ccc(C(=O)Nc3cc(F)c4nc(C)cn4c3)c3nn(C)cc23)[C@H]1C [Compound 155, N-(8-fluoro-2-methylimidazo-[1,2-a]pyridin-6-yl)-2-methyl-4-[(2S,3R)-2-methyl-3-(methylamino)-pyrrolidin-1-yl]indazole-7-carboxamide]
AC50 (HTT mRNA [4]): > 10000 nM
AC50 (MYB mRNA [5]): 1000 to 10000 nM

More lines, now with the values behind:

Structure (SMILES): COCC1(N[C@H]2CCN(c3ccc(C(=O)Nc4cc(F)c5nc(C)cn5c4)c4nn(C)cc34)C2)CC1 [Compound 118, (S)—N-(8-fluoro-2-methylimidazo[1,2-a]pyridin-6-yl)-4-(3-((1-(methoxymethyl)cyclopropyl)amino)pyrrolidin-1-yl)-2-methyl-2H-indazole-7-carboxamide]
GI50 [1]: > 10000 nM
IC50 (SMN2 mRNA): 100 to 1000 nM
IC50 (MYB mRNA [2]): 1000 to 10000 nM
IC50 (HTT mRNA [3]): 1000 to 10000 nM
AC50 (HTT mRNA [4]): > 10000 nM
IC50 (HTT mRNA [4]): > 10000 nM
AC50 (MYB mRNA [5]): 1000 to 10000 nM
IC50 (MYB mRNA [5]): 100 to 1000 nM

Structure (SMILES): COCC1(N[C@@H]2CCN(c3ccc(C(=O)Nc4cc(F)c5nc(C)cn5c4)c4nn(C)cc34)C2)CC1 [Compound 119, (R)—N-(8-fluoro-2-methylimidazo[1,2-a]pyridin-6-yl)-4-(3-((1-(methoxymethyl)cyclopropyl)amino)-pyrrolidin-1-yl)-2-methyl-2H-indazole-7-carboxamide]
GI50 [1]: 1000 to 10000 nM
IC50 (SMN2 mRNA): 100 to 1000 nM
IC50 (MYB mRNA [2]): 100 to 1000 nM
IC50 (HTT mRNA [3]): 1000 to 10000 nM
AC50 (HTT mRNA [4]): > 10000 nM
IC50 (HTT mRNA [4]): > 10000 nM
AC50 (MYB mRNA [5]): 100 to 1000 nM
IC50 (MYB mRNA [5]): 100 to 1000 nM

Structure (SMILES): CCN[C@@H]1CCN(c2cc(O)c(C(=O)Nc3cc(F)c4nc(C)cn4c3)c3nn(C)cc23)C1 [Compound 144, 4-[3-(ethylamino)pyrrolidin-1-yl]-N-(8-fluoro-2-methyl-imidazo[1,2-a]pyridin-6-yl)-6-hydroxy-2-methyl-indazole-7-carboxamide]
GI50 [1]: 100 to 1000 nM
IC50 (SMN2 mRNA): < 100 nM
IC50 (MYB mRNA [2]): < 100 nM
IC50 (HTT mRNA [3]): > 10000 nM
AC50 (HTT mRNA [4]): > 10000 nM
IC50 (HTT mRNA [4]): > 10000 nM
AC50 (MYB mRNA [5]): < 100 nM
IC50 (MYB mRNA [5]): < 100 nM

Structure (SMILES): CN[C@H]1CCN(c2c(O)cc(C(=O)Nc3cc(F)c4nc(C)cn4c3)c3nn(C)cc23)C1 [Compound 149, N-(8-fluoro-2-methyl-imidazo[1,2-a]pyridin-6-yl)-5-hydroxy-2-methyl-4-[(3S)-3-(methylamino)pyrrolidin-1-yl]-indazole-7-carboxamide]
GI50 [1]: 1000 to 10000 nM
IC50 (SMN2 mRNA): 100 to 1000 nM
IC50 (MYB mRNA [2]): 1000 to 10000 nM
IC50 (HTT mRNA [3]): 1000 to 10000 nM
AC50 (HTT mRNA [4]): > 10000 nM
IC50 (HTT mRNA [4]): > 10000 nM
AC50 (MYB mRNA [5]): > 10000 nM
IC50 (MYB mRNA [5]): 1000 to 10000 nM

Structure (SMILES): Cc1cn2cc(NC(=O)c3c(F)cc(N4CC[C@H](NCC56CC(CO5)C6)C4)c4cn(C)nc34)cc(F)c2n1 [Compound 157, 6-fluoro-N-(8-fluoro-2-methyl-imidazo[1,2-a]pyridin-6-yl)-2-methyl-4-[(3S)-3-(2-oxabicyclo[2.1.1]hexan-1-ylmethylamino)pyrrolidin-1-yl]indazole-7-carboxamide]
GI50 [1]: 1000 to 10000 nM
IC50 (SMN2 mRNA): < 100 nM
IC50 (MYB mRNA [2]): 100 to 1000 nM
IC50 (HTT mRNA [3]): > 10000 nM
AC50 (HTT mRNA [4]): > 10000 nM
IC50 (HTT mRNA [4]): > 10000 nM
AC50 (MYB mRNA [5]): < 100 nM
IC50 (MYB mRNA [5]): < 100 nM

Structure (SMILES): CN[C@H]1CCN(c2ccc(C(=O)Nc3cc(F)c4nc(C)cn4c3)c3c2nnn3C)C1 [Compound 160, N-(8-fluoro-2-methyl-imidazo[1,2-a]pyridin-6-yl)-3-methyl-7-[(3S)-3-(methylamino)-pyrrolidin-1-yl]benzotriazole-4-carboxamide]
GI50 [1]: > 10000 nM
IC50 (SMN2 mRNA): > 10000 nM
IC50 (MYB mRNA [2]): > 10000 nM
IC50 (HTT mRNA [3]): > 10000 nM
AC50 (HTT mRNA [4]): > 10000 nM
IC50 (HTT mRNA [4]): > 10000 nM
AC50 (MYB mRNA [5]): > 10000 nM
IC50 (MYB mRNA [5]): > 10000 nM

Structure (SMILES): CN[C@H]1CCN(c2ccc(C(=O)Nc3cc(F)c4nc(C)cn4c3)c3nn(C)nc23)C1 [Compound 163, (S)-N-(8-fluoro-2-methylimidazo-[1,2-a]pyridin-6-yl)-2-methyl-7-(3-(methylamino)pyrrolidin-1-yl)-2H-benzo[d]-[1,2,3]triazole-4-carboxamide]
GI50 [1]: 100 to 1000 nM
IC50 (SMN2 mRNA): < 100 nM
IC50 (MYB mRNA [2]): 100 to 1000 nM
IC50 (HTT mRNA [3]): 100 to 1000 nM
AC50 (HTT mRNA [4]): 1000 to 10000 nM
IC50 (HTT mRNA [4]): 100 to 1000 nM
AC50 (MYB mRNA [5]): 100 to 1000 nM
IC50 (MYB mRNA [5]): 1000 to 10000 nM

Structure (SMILES): CN[C@H]1CCN(c2ccc(C(=O)Nc3cc(F)c4nc(C)cn4c3)c3nnn(C)c23)C1 [Compound 166, (S)-N-(8-fluoro-2-methylimidazo-[1,2-a]pyridin-6-yl)-1-methyl-7-(3-(methylamino)pyrrolidin-1-yl)-1H-benzo[d]-[1,2,3]triazole-4-carboxamide]
GI50 [1]: 1000 to 10000 nM
IC50 (SMN2 mRNA): < 100 nM
IC50 (MYB mRNA [2]): 100 to 1000 nM
IC50 (HTT mRNA [3]): > 10000 nM
AC50 (HTT mRNA [4]): > 10000 nM
IC50 (HTT mRNA [4]): > 10000 nM
AC50 (MYB mRNA [5]): 100 to 1000 nM
IC50 (MYB mRNA [5]): 1000 to 10000 nM
